For assay [1], the system named is AR42J cells (ATCC CRL 1492). Kind of assay: Morphological change of AR42J cells as marker of induced differentiation into insulin-producing cells. In kind it is cell-based. Conditions: final concentration 0.1 μg/ml, three days, FIG. 1B. As for the experimental part:
Thus, it was examined whether an extract of Ervatamia microphylla can induce AR42J cells to differentiate into insulin-producing cells. It should be noted that, since characteristic morphological changes of cells are observed as differentiation into insulin-producing cells is induced, morphological changes in AR42J cell were examined as a marker of differentiation induction in this Example. AR42J cells were cultured in the media prepared by sterilizing Dulbecco modification Eagle' medium (DMEM; Nissui Pharmaceutical Co., Ltd.) by filtration after its pH was adjusted to 7.4 in the presence of 20 mM HEPES-NaOH and adding 0.6 g/l glutamine (Kanto Chemical Co., Inc: Tokyo, Japan), 0.2 g/l kanamycin (Sigma Chemical Science; Sigma: St.Louis, Mo., USA), 100 unit/ml penicillin G (Sigma), 5 mM NaHCO3, and 10% fetal bovine serum (FBS; Sigma).
500 μl of a suspension of AR42J cells (4.0×10^5 cells/ml per culture medium) was plated into each well of 24-well plastic plates (Corning) at 2×10^5 cells/well and cultured under the conditions of 37° C. and 5% CO2. […]

The subject of assay [2] is streptozotocin-induced diabetic rats. Kind of assay: Blood glucose levels of streptozotocin-administered rats. Conditions: 5 μg/g BW subcutaneously for seven consecutive days from day 1 after streptozotocin 85 μg/g BW i.p.; P<0.05 / P<0.01 vs Control. Format: in vivo, Wistar rats. As to the method: Ten 1-day-old Wistar rats (purchased from Japan SLC, Shizuoka, Japan) were intraperitoneally injected with streptozotocin (purchased from Wako Pure Chemical Industries, Ltd., dissolved in […] citrate buffer (pH 4.5)) at 85 μg/g BW per rat. Streptozotocin decreases insulin production by destroying pancreatic cells, thereby inducing diabetes. The day of streptozotocin injection was defined as day 0. Starting from the next day (day 1), five rats were injected subcutaneously with a solution (ethanol) of conophylline at 5 μg/g BW for seven consecutive days and their blood glucose levels were measured at a predetermined time daily. Five rats in the control group received the same volume of solvent (control).

Assay [3] deals with K-ras-NRK cells. Put plainly: Morphological change of K-ras-NRK cells. In kind it is cell-based. Conditions: final concentration 0.1 μg/ml, three days, FIG. 4. An excerpt: Conophylline is known to induce a morphological change of K-ras-NRK cells. Thus, it was examined whether an extract of Ervatamia microphylla leaves induces morphological changes of K-ras-NRK cells. It is also known that leaves of the Malaysian Tabernaemontana contains conophylline (Org. Biomol. Chem. 1: 1292-1297, 2003). Thus, it was examined that whether an extract of leaves of crape jasmine, the Japanese Tabernaemontana divaricata, also induces morphological changes in K-ras-NRK cells. An extract of each plant was prepared, in the same manner as described in Example 1, by extracting the active ingredient contained in the leaves with methanol, then removing solids by suction filtration, followed by concentring and drying, and dissolving the resulting powder into methanol.
500 μl of a suspension ([…] per culture medium (DMEM containing 5% FBS, 0.6 g/l glutamine, 0.2 g/l kanamycin, 2.25 g/l NaHCO3)) of K-Ras-NRK cells was added to each well of 24-well plastic plates at 2.0×10^4 cells/well, and the plates were incubated at 37° C. under 5% CO2. The next day, conophylline (final concentration: 0.1 μg/ml), an extract of Ervatamia microphylla leaves (final concentration: 10 μg/ml), and an extract of crape jasmine leaves (final concentration: 10 μg/ml) were added to the culture medium, which was incubated at 37° C. under the condition of 5% CO2 for three days. […]

For assay [4], the system named is pancreatic acinar carcinoma AR42J-B13 cells. Conditions: cited from earlier work.

SMILES strings stand for the structures.

Take `CC[C@@]12CC(C(=O)OC)=C3Nc4cc5c(cc4[C@@]34CCN(C[C@H]3O[C@H]31)[C@@H]24)[C@@H]1[C@H](O5)[C@@H](O)[C@@]2(CC)CC(C(=O)OC)=C3Nc4c(cc(O)c(OC)c4OC)[C@@]34CCN1[C@@H]24` [conophylline]: in assay [1], the “morphological change of AR42J cells (induction of differentiation into insulin-producing cells)” value is “undergo a morphological change from small spherical cells to flat cells partly with processes”. Besides, the “blood glucose level compared with the control” value in assay [2] is “apparent decrease in blood glucose levels”. Also, the “morphological change of K-ras-NRK cells” value in assay [3] was “undergo a morphological change”. Further, the “induction of differentiation into insulin-producing cells” value in assay [4] (Abstracts of the 45th Annual Meeting of the Japan Diabetes Society, 2002) is “induces differentiation of pancreatic acinar carcinoma AR42J-B13 cells into insulin-producing cells”. The “insulin release from the induced insulin-producing cells” value in assay [4] (same literature condition) is reported as “do not release insulin from the cells”.

The record behind these values is patent US20090291153A1, “Health food, Method for producing the same and dried Product and Extract” (priority 2004, published 2009).
